Data reported in patent EP4692114A1, “CALCITONIN ANALOGUE, AND DERIVATIVE THEREOF AND USE THEREOF” (Hangzhou Sciwind Biosciences Co., Ltd., priority 2023, dated 2024).
*1 amine or outer side, *2 acyl side, *3 side chain or, on linkers, in order; H or OH if unused. Where a SMILES comes first, the peptide text is derived from it. The star is where a group is joined. C22 diacid = O=C(O)CCCCCCCCCCCCCCCCCCCCC(=O)*; C20 diacid = O=C(O)CCCCCCCCCCCCCCCCCCC(=O)*; C18 diacid = O=C(O)CCCCCCCCCCCCCCCCC(=O)*; C16 diacid = O=C(O)CCCCCCCCCCCCCCC(=O)*; γGlu = O=C(O)[C@H](CCC(=O)[*:2])N[*:1]; Trx = NC[C@H]1CC[C@H](C(=O)O)CC1; Inp = O=C(O)C1CCNCC1

Assay: Heat accelerated stability assay under a neutral condition
Type: physicochemical
Conditions: pH about 7.4, 40°C; for Changes in characteristics or properties, 0d / Changes in characteristics or properties, 7d: 1 mg/mL, phosphate; for Concentration change (7d-0d)/%: Day 7 vs Day 0, reversed phase chromatography; for Purity Change% (7d-0d) / Purity Change% (26d-0d): purity from reversed phase chromatography-214 nm; for Purity Change% (7d-0d): Day 7 vs Day 0; for Purity Change% (26d-0d): Day 26 vs Day 0
Protocol: The lyophilized powder (1 mg/mL) of calcitonin analogues or derivatives prepared in accordance with the method of Example 1 were mixed with sodium dihydrogen phosphate (1.42 mg/mL) and dissolved in ultrapure water in the indicated mass-volume ratios. After adjusting pH to about 7.4 with hydrochloric acid/sodium hydroxide, the solution was filtered into a sterilized vial in a clean bench using a 0.22 µm sterile filter. The vial was then capped and placed into the stability test chamber at 40°C. Detections were made on Days 7 (7d) and 26 (26d), and during the assay, changes in the characteristics and properties of the polypeptides were observed and recorded. The sample was then centrifuged for 3 min at 10000 rpm at 4°C, and the supernatant was transferred to a liquid phase sample vial for detecting the concentration and purity of the polypeptides using liquid phase chromatography described as below, wherein the concentration of the polypeptide = peak area/injection volume/extinction coefficient/60×flow rate, and the purity of the polypeptide = target peak area/total peak area× 100%.
Conditions of the reversed phase chromatography Flow rate: 1.0 ml/min; Autosampler temperature: 15°C; Column temperature: 25°C; Detection wavelengths: 280 nm and 214 nm; Mobile phase A: 100% H2O+0.05% TFA; Mobile phase B: 100% ACN; and Gradient of elution listed in Table 4: Table 4. Listing of the gradient of elution in the liquid phase chromatography
Results were shown below in Tables 5, 6, and 7. A difference of more than 5% in content as compared with the initial value was typically assumed (for example, as prescribed by the Chinese Pharmacopeia (2020 Edition)) to be a significant change. Within a reasonable margin of error, a decrease of less than 1% from the initial value to the detected content is denoted as "no change" below. Table 5. Changes in characteristics or properties in the heat accelerated stability assay

Row | SMILES | Changes in characteristics or properties, 0d | Changes in characteristics or properties, 7d | Concentration change (7d-0d)/% | Purity Change% (7d-0d) | Purity Change% (26d-0d)
1 | CC(C)C[C@H](NC(=O)[C@H](CCCNC(=N)N)NC(=O)CNC(=O)[C@H](CC(C)C)NC(=O)[C@@H](NC(=O)[C@H](C)NC(=O)[C@@H](NC(=O)[C@H](CO)NC(=O)[C@H](CC(C)C)NC(=O)[C@H](CCC(N)=O)NC(=O)[C@H](CO)NC(=O)[C@H](C)NC(=O)CC[C@H](NC(=O)CCCCCCCCCCCCCCCCCCCCC(=O)O)C(=O)O)[C@@H](C)O)C(C)C)C(=O)N[C@@H](CO)C(=O)N[C@@H](CC(=O)O)C(=O)N[C@@H](CCC(=O)O)C(=O)N[C@@H](CC(C)C)C(=O)N[C@@H](Cc1c[nH]cn1)C(=O)N[C@@H](CCCNC(=N)N)C(=O)N[C@@H](CC(C)C)C(=O)N[C@@H](CCC(N)=O)C(=O)N[C@@H](CC(=O)O)C(=O)N[C@@H](Cc1ccc(O)cc1)C(=O)N1CCC[C@H]1C(=O)N[C@@H](CCCNC(=N)N)C(=O)N[C@H](C(=O)N[C@@H](CC(=O)O)C(=O)N[C@H](C(=O)NCC(=O)N[C@@H](CO)C(=O)NCC(=O)N[C@@H](CO)C(=O)N1CCC[C@H]1C(N)=O)C(C)C)[C@@H](C)O [M38] ({C22 diacid-γGlu}-ASQLSTAVLGRLSDELHRLQDYPRTDVGSGSP-NH2) | Clear | Clear | No change (a decrease of less than 1% from the initial value to the detected content is denoted as "no change") | No change (a decrease of less than 1% from the initial value to the detected content is denoted as "no change") | No change (a decrease of less than 1% from the initial value to the detected content is denoted as "no change")
2 | CC(C)C[C@H](NC(=O)[C@H](CCCNC(=N)N)NC(=O)CNC(=O)[C@H](CC(C)C)NC(=O)[C@@H](NC(=O)[C@H](C)NC(=O)[C@@H](NC(=O)[C@H](CO)NC(=O)[C@H](CC(C)C)NC(=O)[C@H](CCC(N)=O)NC(=O)[C@H](CO)NC(=O)[C@H](C)NC(=O)CC[C@H](NC(=O)CCCCCCCCCCCCCCC(=O)O)C(=O)O)[C@@H](C)O)C(C)C)C(=O)N[C@@H](CO)C(=O)N[C@@H](CC(=O)O)C(=O)N[C@@H](CCC(=O)O)C(=O)N[C@@H](CC(C)C)C(=O)N[C@@H](Cc1c[nH]cn1)C(=O)N[C@@H](CCCNC(=N)N)C(=O)N[C@@H](CC(C)C)C(=O)N[C@@H](CCC(N)=O)C(=O)N[C@@H](CC(=O)O)C(=O)N[C@@H](Cc1ccc(O)cc1)C(=O)N1CCC[C@H]1C(=O)N[C@@H](CCCNC(=N)N)C(=O)N[C@H](C(=O)N[C@@H](CC(=O)O)C(=O)N[C@H](C(=O)NCC(=O)N[C@@H](CO)C(=O)NCC(=O)N[C@@H](CO)C(=O)N1CCC[C@H]1C(N)=O)C(C)C)[C@@H](C)O [M40] ({C16 diacid-γGlu}-ASQLSTAVLGRLSDELHRLQDYPRTDVGSGSP-NH2) | Clear | Clear | -2.280% | -1.67% | -4.82%
3 | CC(C)C[C@H](NC(=O)[C@H](CCCNC(=N)N)NC(=O)CNC(=O)[C@H](CC(C)C)NC(=O)[C@@H](NC(=O)[C@H](C)NC(=O)[C@@H](NC(=O)[C@H](CO)NC(=O)[C@H](CC(C)C)NC(=O)[C@H](CCC(N)=O)NC(=O)[C@H](CO)NC(=O)[C@H](C)NC(=O)[C@H](CCC(=O)O)NC(=O)CCCCCCCCCCCCCCCCCCC(=O)O)[C@@H](C)O)C(C)C)C(=O)N[C@@H](CO)C(=O)N[C@@H](CC(=O)O)C(=O)N[C@@H](CCC(=O)O)C(=O)N[C@@H](CC(C)C)C(=O)N[C@@H](Cc1c[nH]cn1)C(=O)N[C@@H](CCCNC(=N)N)C(=O)N[C@@H](CC(C)C)C(=O)N[C@@H](CCC(N)=O)C(=O)N[C@@H](CC(=O)O)C(=O)N[C@@H](Cc1ccc(O)cc1)C(=O)N1CCC[C@H]1C(=O)N[C@@H](CCCNC(=N)N)C(=O)N[C@H](C(=O)N[C@@H](CC(=O)O)C(=O)N[C@H](C(=O)NCC(=O)N[C@@H](CO)C(=O)NCC(=O)N[C@@H](CO)C(=O)N1CCC[C@H]1C(N)=O)C(C)C)[C@@H](C)O [M41] ({C20 diacid}-EASQLSTAVLGRLSDELHRLQDYPRTDVGSGSP-NH2) | Clear | Clear | -3.134% | -1.66% | -5.98%
4 | CC(C)C[C@H](NC(=O)[C@H](CCCNC(=N)N)NC(=O)CNC(=O)[C@H](CC(C)C)NC(=O)[C@@H](NC(=O)[C@H](C)NC(=O)[C@@H](NC(=O)[C@H](CO)NC(=O)[C@H](CC(C)C)NC(=O)[C@H](CCC(N)=O)NC(=O)[C@H](CO)NC(=O)[C@H](C)NC(=O)[C@H]1CC[C@H](CNC(=O)CCCCCCCCCCCCCCCCCCC(=O)O)CC1)[C@@H](C)O)C(C)C)C(=O)N[C@@H](CO)C(=O)N[C@@H](CC(=O)O)C(=O)N[C@@H](CCC(=O)O)C(=O)N[C@@H](CC(C)C)C(=O)N[C@@H](Cc1c[nH]cn1)C(=O)N[C@@H](CCCNC(=N)N)C(=O)N[C@@H](CC(C)C)C(=O)N[C@@H](CCC(N)=O)C(=O)N[C@@H](CC(=O)O)C(=O)N[C@@H](Cc1ccc(O)cc1)C(=O)N1CCC[C@H]1C(=O)N[C@@H](CCCNC(=N)N)C(=O)N[C@H](C(=O)N[C@@H](CC(=O)O)C(=O)N[C@H](C(=O)NCC(=O)N[C@@H](CO)C(=O)NCC(=O)N[C@@H](CO)C(=O)N1CCC[C@H]1C(N)=O)C(C)C)[C@@H](C)O [M45] ({C20 diacid-Trx}-ASQLSTAVLGRLSDELHRLQDYPRTDVGSGSP-NH2) | Clear | Clear | -2.670% | No change (a decrease of less than 1% from the initial value to the detected content is denoted as "no change") | -1.77%
5 | CC(C)C[C@H](NC(=O)[C@H](CCCNC(=N)N)NC(=O)CNC(=O)[C@H](CC(C)C)NC(=O)[C@@H](NC(=O)[C@H](C)NC(=O)[C@@H](NC(=O)[C@H](CO)NC(=O)[C@H](CC(C)C)NC(=O)[C@H](CCC(N)=O)NC(=O)[C@H](CO)NC(=O)[C@H](C)NC(=O)[C@H]1CC[C@H](CNC(=O)CCCCCCCCCCCCCCCCC(=O)O)CC1)[C@@H](C)O)C(C)C)C(=O)N[C@@H](CO)C(=O)N[C@@H](CC(=O)O)C(=O)N[C@@H](CCC(=O)O)C(=O)N[C@@H](CC(C)C)C(=O)N[C@@H](Cc1c[nH]cn1)C(=O)N[C@@H](CCCNC(=N)N)C(=O)N[C@@H](CC(C)C)C(=O)N[C@@H](CCC(N)=O)C(=O)N[C@@H](CC(=O)O)C(=O)N[C@@H](Cc1ccc(O)cc1)C(=O)N1CCC[C@H]1C(=O)N[C@@H](CCCNC(=N)N)C(=O)N[C@H](C(=O)N[C@@H](CC(=O)O)C(=O)N[C@H](C(=O)NCC(=O)N[C@@H](CO)C(=O)NCC(=O)N[C@@H](CO)C(=O)N1CCC[C@H]1C(N)=O)C(C)C)[C@@H](C)O [M46] ({C18 diacid-Trx}-ASQLSTAVLGRLSDELHRLQDYPRTDVGSGSP-NH2) | Clear | Clear | No change (a decrease of less than 1% from the initial value to the detected content is denoted as "no change") | No change (a decrease of less than 1% from the initial value to the detected content is denoted as "no change") | -5.67%
6 | CC(C)C[C@H](NC(=O)[C@H](CCCNC(=N)N)NC(=O)CNC(=O)[C@H](CC(C)C)NC(=O)[C@@H](NC(=O)[C@H](C)NC(=O)[C@@H](NC(=O)[C@H](CO)NC(=O)[C@H](CC(C)C)NC(=O)[C@H](CCC(N)=O)NC(=O)[C@H](CO)NC(=O)[C@H](C)NC(=O)C1CCN(C(=O)CCCCCCCCCCCCCCCCCCC(=O)O)CC1)[C@@H](C)O)C(C)C)C(=O)N[C@@H](CO)C(=O)N[C@@H](CC(=O)O)C(=O)N[C@@H](CCC(=O)O)C(=O)N[C@@H](CC(C)C)C(=O)N[C@@H](Cc1c[nH]cn1)C(=O)N[C@@H](CCCNC(=N)N)C(=O)N[C@@H](CC(C)C)C(=O)N[C@@H](CCC(N)=O)C(=O)N[C@@H](CC(=O)O)C(=O)N[C@@H](Cc1ccc(O)cc1)C(=O)N1CCC[C@H]1C(=O)N[C@@H](CCCNC(=N)N)C(=O)N[C@H](C(=O)N[C@@H](CC(=O)O)C(=O)N[C@H](C(=O)NCC(=O)N[C@@H](CO)C(=O)NCC(=O)N[C@@H](CO)C(=O)N1CCC[C@H]1C(N)=O)C(C)C)[C@@H](C)O [M47] ({C20 diacid-Inp}-ASQLSTAVLGRLSDELHRLQDYPRTDVGSGSP-NH2) | Clear | Clear | -3.488% | No change (a decrease of less than 1% from the initial value to the detected content is denoted as "no change") | No change (a decrease of less than 1% from the initial value to the detected content is denoted as "no change")
